# Paper PMC7400437, “Synthesis and Evaluation of the Antibacterial Activities of 13-Substituted Berberine Derivatives” (Antibiotics, 2020)
# Like-named read-outs stand apart in the source and are kept apart here.
# Assays:
# S. aureus = assay: MIC, antimicrobial activity assay; format: cell-based, Staphylococcus aureus (ATCC 6538P); conditions: Staphylococcus aureus
# B. subtilis = assay: MIC, antimicrobial activity assay; format: cell-based, Bacillus subtilis (ATCC 6633); conditions: Bacillus subtilis
# E. coli = assay: MIC, antimicrobial activity assay; format: cell-based, Escherichia coli (ATCC 8739); conditions: Escherichia coli
# P. aeruginosa = assay: MIC, antimicrobial activity assay; format: cell-based, Pseudomonas aeruginosa (ATCC 9027); conditions: Pseudomonas aeruginosa
# M. smegmatis = assay: microbe, parasite or virus in culture; format: cell-based, Mycobacterium smegmatis (mc2155, ATCC 700084); conditions: Mycolicibacterium smegmatis, 72 h, read-out: Minimal Inhibitory Concentration (MIC) M. smegmatis
# C. albicans = assay: MIC, antifungal activity assay; format: cell-based, Candida albicans (DSM 10697); conditions: Candida albicans; Table 1 first screening; 35 °C, 24 h; read-out: Minimal Inhibitory Concentration (MIC) C. albicans
# [1] = system: BEAS (human airway epithelial cells); assay: Cytotoxic assay on human cells (resazurin); format: cell-based; conditions: Epithelial cell, 48 h, means +/−SD, read-out: Inhibitory Concentration 50 (IC50) on cell viability, BEAS
# Description: (§1) The toxicity of berberine and berberine’s derivatives on human cells was evaluated using resazurin assay as previously described. Human cells used were BEAS (ATCC CRL-9609), Caco2 (ATCC HTB-37) and HepG2 (ATCC HB-8065) corresponding respectively to human airway epithelial cells, intestinal epithelial cells and liver cells. Cells were cultured in Dulbecco’s modified essential medium (DMEM) supplemented with 10% fetal bovine serum (FBS), 1% L-glutamine and 1% antibiotics (Thermo Fisher Scientific, Illkirch-Graffenstaden, France). Cells were routinely grown on 25 cm^2 flasks and maintained in a 5% CO2 incubator at 37 °C. For toxicity assay, cells were detached using trypsin–EDTA solution (Thermo Fisher Scientific), counted using Mallasez counting chamber and seeded into 96-well cell culture plates (Greiner bio-One, Dominique Dutscher, Brumath, France) at approximately 10,000 cells per well. The cells were left to grow for 48–72 h at 37 °C in a 5% CO2 incubator until they reached confluence. Media from wells was then aspirated and cells were treated with 100 µL of culture media containing increasing concentrations of berberine or berberine’s derivatives obtained by serial dilution (from 0 to 50 µM, 1:2 dilution), DMSO (0.5% DMSO final concentration) was used as negative control. After 48 h incubation at 37 °C in a 5% CO2 incubator, cell viability was evaluated using resazurin based in vitro toxicity assay kit (Sigma-Aldrich) following manufacturer’s instructions. Briefly, cell wells were emptied, and cells were treated with 100 µL of resazurin diluted 1:10 in sterile PBS containing calcium and magnesium (PBS^++, pH 7.4). After 4 h incubation at 37 °C, fluorescence intensity (excitation wavelength of 530 nm/emission wavelength of 590 nm) was measured using Synergy Mx microplate reader (Biotek). The fluorescence values were normalized by the controls (DMSO treated cells) and expressed as percent viability. The IC50 values of berberine and berberine’s derivatives on cell viability (i.e., the concentration of derivative causing a reduction of 50% of the cell viability) were calculated using GraphPad® Prism 7 software (San Diego, CA, USA). t-Test and two ways ANOVA analyses were used to address the significant differences between mean values with significance set at p < 0.05.
# [2] = system: Caco2 (human intestinal epithelial cells); assay: Cytotoxic assay on human cells (resazurin); format: cell-based; conditions: for IC50: Homo sapiens, Caco-2, 48 h, read-out: Inhibitory Concentration 50 (IC50) on cell viability, Caco2
# Description: as §1
# [3] = system: HepG2 (human liver cells); assay: Cytotoxic assay on human cells (resazurin); format: cell-based; conditions: HepG2, 48 h, read-out: Inhibitory Concentration 50 (IC50) on cell viability, HEPG2
# Description: as §1
# A. gandavensis = assay: MIC, antimicrobial activity assay; format: cell-based, Arthrobacter gandavensis (DSM 2447); conditions: Arthrobacter gandavensis; Table 4, Gram-positive
# B. cereus = assay: MIC, antimicrobial activity assay; format: cell-based; conditions: Bacillus cereus; Table 4, Gram-positive
# [4] = system: B. subtilis (Nisin-resistant); assay: MIC, antimicrobial activity assay; format: cell-based, nisin-resistant B. subtilis (DSMZ 347); conditions: Bacillus subtilis, read-out: MIC B. subtilis (Nisin-resistant)
# C. difficile = assay: MIC, antimicrobial activity assay; format: cell-based, Clostridium difficile (DSM 1296); conditions: Clostridioides difficile; Table 4, Gram-positive; anaerobic
# C. perfringens = assay: microbe, parasite or virus in culture; format: cell-based, Clostridium perfringens (ATCC 13124); conditions: Clostridium perfringens, read-out: MIC C. perfringens
# [5] = system: E. faecalis (Vancomycin-resistant); assay: MIC, antimicrobial activity assay; format: cell-based, vancomycin-resistant Enterococcus faecalis (DSMZ 13591); conditions: Enterococcus faecalis, read-out: MIC E. faecalis (Vancomycin-resistant)
# L. lactis = assay: MIC, antimicrobial activity assay; format: cell-based, Lactococcus lactis (DSM 20481); conditions: Lactococcus lactis; Table 4, Gram-positive
# [6] = system: S.aureus (Methicillin-resistant); assay: MIC, antimicrobial activity assay; format: cell-based; conditions: Staphylococcus aureus, read-out: MIC S.aureus (Methicillin-resistant)
# S. pyogenes = assay: MIC, antimicrobial activity assay; format: cell-based, Streptococcus pyogenes (DSM 20565); conditions: Streptococcus pyogenes; Table 4, Gram-positive; anaerobic
# A. baumannii = assay: MIC, antimicrobial activity assay; format: cell-based, Acinetobacter baumannii (CIP 110431); conditions: Acinetobacter baumannii; Table 4, Gram-negative
# C. farmer = assay: MIC, antimicrobial activity assay; format: cell-based, Citrobacter farmeri (ATCC 51633); conditions: Citrobacter farmeri; Table 4, Gram-negative
# C. rodentium = assay: MIC, antimicrobial activity assay; format: cell-based, Citrobacter rodentium (ATCC 51116); conditions: Citrobacter rodentium; Table 4, Gram-negative
# H. pylori = assay: MIC, antimicrobial activity assay; format: cell-based, Helicobacter pylori (ATCC 43504); conditions: Helicobacter pylori; Table 4, Gram-negative; microaerobic
# K. pneumonia = assay: MIC, antimicrobial activity assay; format: cell-based, Klebsiella pneumoniae (DSMZ 26371); conditions: Klebsiella pneumoniae; Table 4, Gram-negative
# [7] = system: P. aeruginosa (Quinolone-resistant); assay: MIC, antimicrobial activity assay; format: cell-based; conditions: Pseudomonas aeruginosa, read-out: MIC P. aeruginosa (Quinolone-resistant)
# S. enterica = assay: MIC, antimicrobial activity assay; format: cell-based, Salmonella enterica (CIP 80.39); conditions: Salmonella enterica; Table 4, Gram-negative
# S. flexneri = assay: MIC, antimicrobial activity assay; format: cell-based, Shigella flexneri (ATCC 12022); conditions: Shigella flexneri; Table 4, Gram-negative
# V. diabolicus = assay: MIC, antimicrobial activity assay; format: cell-based; conditions: Vibrio diabolicus; Table 4, Gram-negative
# V. alginolyticus = assay: MIC, antimicrobial activity assay; format: cell-based, Vibrio alginolyticus (DSM 2171); conditions: Vibrio alginolyticus; Table 4, Gram-negative
# [8] = Table 1 first screening, read-out: Minimal Inhibitory Concentration (MIC) S. aureus
# [9] = Table 1 first screening, read-out: Minimal Inhibitory Concentration (MIC) B. subtilis
# [10] = Table 1 first screening, read-out: Minimal Inhibitory Concentration (MIC) E. coli
# [11] = Table 1 first screening, read-out: Minimal Inhibitory Concentration (MIC) P. aeruginosa
smiles,measurement,setting,value
COc1ccc2c(Cc3ccc(-c4nc5ccccc5s4)cc3)c3[n+](cc2c1OC)CCc1cc2c(cc1-3)OCO2 [Compound 19],MIC,S. aureus; [8],1.5 to 3.12 µM
same,MIC,B. subtilis; [9],1.5 µM
same,MIC,E. coli; [10],> 100 µM
same,MIC,P. aeruginosa; [11],> 100 µM
same,MIC,M. smegmatis,12.5 µM
same,MIC,C. albicans,6.25 µM
same,IC50,[1],4.92 ± 0.6 µM
same,IC50,[2],12 ± 1.3 µM
same,IC50,[3],31.2 ± 7.1 µM
"COc1ccc2c(Cc3ccc4c(c3)OCO4)c3[n+](cc2c1OC)CCc1cc2c(cc1-3)OCO2 [Compound 13, 13-[(2H-1,3-Benzodioxol-5-yl)methyl]Berberine]",MIC,S. aureus; [8],6.25 to 12.5 µM
same,MIC,B. subtilis; [9],25 µM
same,MIC,E. coli; [10],> 100 µM
same,MIC,P. aeruginosa; [11],> 100 µM
same,MIC,M. smegmatis,12.5 µM
same,MIC,C. albicans,50 µM
same,IC50,[1],16.9 ± 1.5 µM
same,IC50,[2],31.4 ± 3.8 µM
same,IC50,[3],> 50 µM
"C=Cc1ccc(Cc2c3[n+](cc4c(OC)c(OC)ccc24)CCc2cc4c(cc2-3)OCO4)cc1 [Compound 9, 13-(4-Ethenylbenzyl)Berberine]",MIC,S. aureus; [8],3.12 µM
same,MIC,B. subtilis; [9],12.5 µM
same,MIC,E. coli; [10],> 100 µM
same,MIC,P. aeruginosa; [11],> 100 µM
same,MIC,M. smegmatis,6.25 µM
same,MIC,C. albicans,50 µM
same,IC50,[1],12.8 ± 1.6 µM
same,IC50,[2],24.8 ± 3.6 µM
same,IC50,[3],> 50 µM
"COc1ccc(Cc2c3[n+](cc4c(OC)c(OC)ccc24)CCc2cc4c(cc2-3)OCO4)c(OC)c1OC [Compound 14, 13[(2,3,4-Trimethoxyphenyl)methyl]Berberine]",MIC,S. aureus; [8],25 µM
same,MIC,B. subtilis; [9],50 µM
same,MIC,E. coli; [10],> 100 µM
same,MIC,P. aeruginosa; [11],> 100 µM
same,MIC,M. smegmatis,25 µM
same,MIC,C. albicans,> 100 µM
same,IC50,[1],> 50 µM
same,IC50,[2],> 50 µM
same,IC50,[3],> 50 µM
"COc1ccc2c(O)c3[n+](cc2c1OC)CCc1cc2c(cc1-3)OCO2 [Compound 2, 13-hydroxyberberine]",MIC,S. aureus; [8],12.5 to 25 µM
same,MIC,B. subtilis; [9],50 µM
same,MIC,E. coli; [10],> 100 µM
same,MIC,P. aeruginosa; [11],> 100 µM
same,MIC,M. smegmatis,25 µM
same,MIC,C. albicans,> 100 µM
same,IC50,[1],> 50 µM
same,IC50,[2],34.2 ± 3.8 µM
same,IC50,[3],> 50 µM
"COc1ccc2c(=O)cc(-c3ccc(Cc4c5[n+](cc6c(OC)c(OC)ccc46)CCc4cc6c(cc4-5)OCO6)cc3)oc2c1 [Compound 26, 2-{4-[(Berberin-13-yl)methyl]phenyl}-7-methoxy-4H-chromen-4-one]",MIC,S. aureus; [8],12.5 µM
same,MIC,"S. aureus; Table 4, Gram-positive, read-out: MIC S. aureus",12.5 µM
same,MIC,B. subtilis; [9],50 µM
same,MIC,"B. subtilis; Table 4, Gram-positive, read-out: MIC B. subtilis",50 µM
same,MIC,E. coli; [10],> 100 µM
same,MIC,"E. coli; Table 4, Gram-negative, read-out: MIC E. coli",> 100 µM
same,MIC,P. aeruginosa; [11],> 100 µM
same,MIC,"P. aeruginosa; Table 4, Gram-negative, read-out: MIC P. aeruginosa",> 100 µM
same,MIC,M. smegmatis,50 µM
same,MIC,C. albicans,100 µM
same,MIC,A. gandavensis,12.5 µM
same,MIC,B. cereus,50 µM
same,MIC,[4],50 µM
same,MIC,C. difficile,> 100 µM
same,MIC,C. perfringens,> 100 µM
same,MIC,[5],> 100 µM
same,MIC,L. lactis,6.25 to 12.5 µM
same,MIC,[6],25 µM
same,MIC,S. pyogenes,25 µM
same,MIC,A. baumannii,> 100 µM
same,MIC,C. farmer,> 100 µM
same,MIC,C. rodentium,> 100 µM
same,MIC,H. pylori,50 µM
same,MIC,K. pneumonia,> 100 µM
same,MIC,[7],> 100 µM
same,MIC,S. enterica,> 100 µM
same,MIC,S. flexneri,> 100 µM
same,MIC,V. diabolicus,> 100 µM
same,MIC,V. alginolyticus,50 µM
same,IC50,[1],> 50 µM
same,IC50,[2],> 50 µM
same,therapeutic index Caco2,[2]; IC50 on Caco2 divided by MIC on S. aureus,20.24
same,IC50,[3],> 50 µM
"COc1ccc2c(Cc3ccc(CN)cc3)c3[n+](cc2c1OC)CCc1cc2c(cc1-3)OCO2 [Compound 11, 13-(4-Aminomethylbenzyl)Berberine]",MIC,S. aureus; [8],25 µM
same,MIC,B. subtilis; [9],25 µM
same,MIC,E. coli; [10],> 100 µM
same,MIC,P. aeruginosa; [11],> 100 µM
same,MIC,M. smegmatis,50 µM
same,MIC,C. albicans,100 µM
same,IC50,[1],> 50 µM
same,IC50,[2],> 50 µM
same,IC50,[3],> 50 µM
